{"source": "patent US9828398B2", "about": "“Compound for bone scanning and use thereof” (TAIWAN HOPAX CHEMS. MFG. CO., LTD., priority 2015, dated 2017)", "experiment": "Planar scintigraphy of 111In-compounds in normal rats", "assay_type": "in vivo", "conditions": "1, 24 and 48 hours after ^111In-OMS or ^111In-OB121", "procedure": "FIG. 31 is planar scintigraphy of ^111In-Compounds ([…], iv, at 1-48 hours acquired 500,000, count) in normal rats.\nPamidronate (PAM), Methyl diphosphonate (MDP) and OMS are bone-related agents and were used as control group in present invention. Scintigraphic images, captured by a gamma camera equipped with low-energy, parallel-hole collimator or micro-PET, were obtained in 0.5-2 hours. The selected images are shown in FIGS. 29 and 30, wherein FIG. 29 compares the planar images of 30, 60, and 120 min of normal rats which were taken ^99mTc-PAM, ^99mTc-MDP, ^99mTc-OMS, ^99mTc-OB141, ^99mTc-OB 121 and ^99mTc-DTPA-BP respectively. FIG. 30 compares the planar images of 20, 60, and 150 min of normal rats which were taken ^99mTc-MDP, ^99mTc-DTPA-AMDP, and ^99mTc-MAMA-AMDP respectively. Higher joint-to-muscle (J/M) or bone-to-muscle (B/M) ratios and the better quality of bone images were achieved. […] Besides, as tetraazacyclic groups are very lipophilic so that they may have potential applications in the treatment of osteoporosis. Thus, tetraazacyclic groups were labeled with In-111 for longer observation."}
{"smiles": "O=P(O)(O)C(O)(CN1CCN(CC(O)(P(=O)(O)O)P(=O)(O)O)CCN(CC(O)(P(=O)(O)O)P(=O)(O)O)CCN(CC(O)(P(=O)(O)O)P(=O)(O)O)CC1)P(=O)(O)O", "note": "[OB-121, 1,4,7,10-Tetraazacyclododecane-1,4,7,10-tetrakis(2-hydroxy-ethylenebisphosphonate)]", "values": [{"measurement": "quality of planar images", "value": "better compound for getting high quality images"}]}
